Legend:
[1] = system: enteropathogenic wild type E. coli strain 37; test: Inhibition with soluble oligosaccharides in the chromatogram binding assay; set-up: species or system Escherichia coli
Method: FIG. 5. […] Radiolabeled wild type E. coli strain 37 was incubated with a mixture of globotriaose (1.5 mM), neolactotetraose (1.5 mM) and 6′sialyllactose (1.5 mM) in PBS for 1 h at room temperature. Thereafter the suspensions were utilized in the chromatogram binding assay. (A) Binding of radiolabeled E. coli strain 37. (B) Binding of E. coli strain 37 incubated with a mixture of globotriaose, neolactotetraose and 6′sialyllactose. Lanes 1-4 were serial dilutions of globotriaosylceramide (Galα4Galβ4Glc β1Cer) and NeuGc-neolactohexaosylceramide (NeuGcα3Galβ4GlcNAcβ3Gaβ4GlcNacβ3Galβ4Glcβ1Cer). Lane 1, 2 μg of each compound, lane 2, 1 μg of each compound, lane 3, 0.5 μg of each compound, lane 4, 0.2 μg of each compound. Lanes 5-8 were serial dilutions of NeuGc-neolactotetraosylceramide (NeuGcα3Galβ4GlcNAcβ3Galβ4Glcβ1Cer). Lane 5, 2 μg of each compound, lane 6, 1 μg of each compound, lane 7, 0.5 μg of each compound, lane 8, 0.2 μg of each compound. The glycosphingolipids were separated on aluminium-packed silica gel plates, using chloroform/methanol/water (60:35:8, by volume) as solvent system, and the binding assay was performed as described under “Experimental procedures”. Autoradiography was for 12 h.
(C) Binding curves obtained after quantification of binding by densitometry. The autoradiograms in (A) and (B) were analyzed using the NIH Image program. […]

EPEC = settings: 100 mM; cited from earlier work
[2] = system: shiga toxina and shigalike toxin; settings: cited from earlier work
diarrheagenic E. coli = test: Inhibition with soluble oligosaccharides in the chromatogram binding assay; set-up: species or system Escherichia coli
Method: (§1) Glycosphingolipid Binding Assays—Binding of ^35S-labeled bacteria to glycosphingolipids on thin-layer chromatograms was done as reported (7). Dried chromatograms were dipped for 1 min in diethylether/n-hexane (1:5, by volume) containing 0.5% (w/v) polyisobutylmethacrylate (Aldrich Chem. Comp. Inc., Milwaukee, Wis.). After drying, the chromatograms were soaked in PBS containing 2% bovine serum albumin (w/v), 0.1% NaN3 (w/v) and 0.1% Tween 20 (by volume) for 2 h at room temperature. The chromatograms were subsequentely covered with radiolabeled bacteria diluted in PBS (2-5×10^6 cpm/ml). Incubation was done for 2 h at room temperature, followed by repeated washings with PBS. The chromatograms were thereafter autoradiographed using XAR-5 X-ray films (Eastman Kodak, Rochester, N.Y.) for 12 h. Autoradiograms were replicated using a CCD camera (Dage-MTI, Inc., Michigan City, Ind.), and analysis of the images was performed using the public domain NIH Image program (developed at the U.S. National Institutes of Health, and available at http://rsb.info.nih.eov/nih-imaee/).
The final concentrations of the inhibiting oligosaccharides on the TLC-plate were 0.3 mM. […] Thereafter the chromatogram binding assay was performed as described above.

Helicobacter pylori [3] = settings: in vivo; cited from earlier work
Helicobacter pylori [4] = settings: cited from earlier work
H. canis CCUG 33835 = test: Binding of 35S-labeled Helicobacter species to glycosphingolipids on thin-layer chromatograms; set-up: species or system Helicobacter canis; key: An significant darkening on the autoradiogram when 2 μg of the glycosphingolipid was applied on the thin-layer plate is denoted by +; − denotes no binding; settings: 2 μg (40 μg for the glycosphingolipid fraction) on TLC plates
Description: (§2) Gastric species examined in the present study included, Helicobacter mustelae ferret isolates from the National Collection of Type Cultures (NCTC) and the Culture Collection of the University of Gothenberg (CCUG), NCTC 12198/CCUG 25175 (equivalent strains from different sources tested), CCUG 23950 and CCUG 23951, Helicobacterfelis CCUG 28539 from a cat, in addition, H. pylori strains CCUG 17874, CCUG 17875 and a clinical isolate 119/95 were used. Enterohepatic helicobacters of animal origin were purchased from the CCUG including, Helicobacter canes CCUG 33835, Helicobacter bilis CCUG 38995, Helicobacter hepaticus CCUG 33637, and Helicobacterfennelliae (CCUG 18820).
(§3) Binding of Helicobacter spp. to glycosphingolipids, both acid and non-acidfractions. Glycosphingolipids were isolated by standard procedures (Karlsson, 1987). The identity of the purified glycosphingolipids was confirmed by mass spectrometry (Samuelsson et al., 1990), proton NMR spectroscopy (Koerner et al., 1983) and degradation studies (Stellner et al., 1973; Yang and Hakomori, 1971).
(§4) Mixtures of glycosphingolipids (40 μg/lane) or pure compounds (2 μg/lane) were subsequently separated using thin-layer chromatography (TLC) on glass- or aluminum-backed silica gel 60 HPTLC plates (Merck, Darmstadt, Germany), with chloroform/methanot/water (60:35:8, by volume) as solvent system. Chemical detection was accomplished by anisaldehyde (Waldi, 1962). Helicobacter spp. were subjected to ^35S-labeling (Angstrom et al., 1998) and suspended in PBS (10^8 CFU/ml) with a specific activity of approximately 1 cpm per 100 organisms. Binding of the labeled-bacteria to glycosphingolipids separated by TLC was achieved using a bacterial-overlay technique coupled with autoradiography detection using XAR-5 X-ray films (Eastman Kodak, Rochester, N.Y.) as previously described (Hansson et al., 1985).

[5] = system: H. mustelae CCUG 23950 & 23951; test: as above; set-up: species or system Helicobacter mustelae; key: An significant darkening on the autoradiogram when 2 μg of the glycosphingolipid was applied on the thin-layer plate is denoted by +; − denotes no binding; settings: 2 μg (40 μg for the glycosphingolipid fraction) on TLC plates
Description: as §2, §3, §4

H. mustelae 25715 = test: as above; set-up: species or system Helicobacter mustelae; key: An significant darkening on the autoradiogram when 2 μg of the glycosphingolipid was applied on the thin-layer plate is denoted by +; − denotes no binding; settings: 2 μg (40 μg for the glycosphingolipid fraction) on TLC plates
Description: as §2, §3, §4

H. hepaticus CCUG 33637 = test: as above; set-up: species or system Helicobacter hepaticus; key: An significant darkening on the autoradiogram when 2 μg of the glycosphingolipid was applied on the thin-layer plate is denoted by +; − denotes no binding; settings: 2 μg (40 μg for the glycosphingolipid fraction) on TLC plates
Description: as §2, §3, §4

H. felis CCUG 28539 = test: as above; set-up: species or system Helicobacter felis; key: An significant darkening on the autoradiogram when 2 μg of the glycosphingolipid was applied on the thin-layer plate is denoted by +; − denotes no binding; settings: 2 μg (40 μg for the glycosphingolipid fraction) on TLC plates
Description: as §2, §3, §4

H. bilis CCUG 38995 = test: as above; set-up: species or system Helicobacter bilis; key: An significant darkening on the autoradiogram when 2 μg of the glycosphingolipid was applied on the thin-layer plate is denoted by +; − denotes no binding; settings: 2 μg (40 μg for the glycosphingolipid fraction) on TLC plates
Description: as §2, §3, §4

H. pylori CCUG 17874 = test: as above; set-up: species or system Helicobacter pylori; key: An significant darkening on the autoradiogram when 2 μg of the glycosphingolipid was applied on the thin-layer plate is denoted by +; − denotes no binding; settings: 2 μg (40 μg for the glycosphingolipid fraction) on TLC plates
Description: as §2, §3, §4

H. pylori CCUG 17875 [6] = test: as above; set-up: species or system Helicobacter pylori; key: + denotes a significant darkening on the autoradiogram when 2 μg (or 40 μg in the case of the last sample) was applied to TLC plates; − denotes no binding; settings: 2 μg (40 μg for the glycosphingolipid fraction) on TLC plates
Description: as §2, §3, §4

H. pylori CCUG 17875 [7] = test: as above; set-up: species or system Helicobacter pylori
Description: as §2, §3
Mixtures of glycosphingolipids (40 μg/lane) or pure compounds (2 μg/lane) were subsequently separated using thin-layer chromatography (TLC) on glass- or aluminum-backed silica gel 60 HPTLC plates (Merck, Darmstadt, Germany), with chloroform/methanot/water (60:35:8, by volume) as solvent system. […]

H. pylori CCUG 17875 [8] = test: as above; set-up: species or system Helicobacter pylori; key: An significant darkening on the autoradiogram when 2 μg of the glycosphingolipid was applied on the thin-layer plate is denoted by +; − denotes no binding; settings: 2 μg (40 μg for the glycosphingolipid fraction) on TLC plates
Description: as §2, §3, §4

EPEC strain = settings: listed in decreasing order of activity; cited from earlier work
E. coli EIEC CCUG 38092 = test: Chromatogram binding assay, binding specificities of type strains; set-up: species or system Escherichia coli; settings: prolonged sub-culture, 4 μg per lane
Method: Culture Conditions and Labeling—The E. coli strains were cultured on Luria-agar with the addition of 10 μl ^35S-methionine (400 tici; Amersham Pharmacia Biotech, U.K.) at 37° C. for 12 h. The bacteria were harvested by scraping, washed three times with phosphate-buffered saline (PBS), pH 7.3, and thereafter resuspended in PBS (with or without 1% mannose (w/v)) to 1×10^8 CFU/ml. The specific activities of the suspensions were approximately 1 cpm per 100 bacteria.
Thin-Layer Chromatography—Thin-layer chromatography of glycosphingolipids was performed on glass- or aluminum-backed silica gel 60 HPTLC plates (Merck, Darmstadt, Germany), using chloroform/methanol/water 60:35:8 (by volume) as solvent system. Chemical detection was done with anisaldehyde (6).
as §1
However, several wild type diarrheagenic E. coli strains bind to sialic acid (see e.g. FIG. 6 and FIG. 3). […]

| Compound | Binding of glycosphingolipids to H.canis 33835 (H. canis CCUG 33835) | Binding of glycosphingolipids to H.mustelae 23950 & 23951 [5] | Binding of glycosphingolipids to H.mustelae 25715 (H. mustelae 25715) | Binding of glycosphingolipids to H.hepaticus 33637 (H. hepaticus CCUG 33637) | Binding of glycosphingolipids to H.felis 28539 (H. felis CCUG 28539) | Binding of glycosphingolipids to H.bilis 38995 (H. bilis CCUG 38995) | Binding of glycosphingolipids to H.pylori 17874 (H. pylori CCUG 17874) | further results |
| --- | --- | --- | --- | --- | --- | --- | --- | --- |
| CC(=O)NC1C(O)CC(OCC2OC(OC3C(CO)OC(O)C(O)C3O)C(O)C(O)C2O)(C(=O)O)OC1C(O)C(O)CO (stereo not shown) [6′sialyllactose, NeuNAcα6Galβ4Glc] |  |  |  |  |  |  |  | Inhibition of binding to NeuGcα3-neolactotetraosylceramide [1]: inhibited |
| CC(=O)N[C@H]1C(O)O[C@H](CO)[C@H](O)[C@@H]1O (stereo partly shown) [N-acetylgalactosamine] |  |  |  |  |  |  |  | Inhibition of EPEC binding to HeLa cells (EPEC): inhibited |
| OC[C@H]1O[C@H](O[C@@H]2[C@H](O)[C@@H](O)[C@H](O[C@H]3[C@H](O)[C@@H](O)C(O)O[C@@H]3CO)O[C@@H]2CO)[C@H](O)[C@@H](O)[C@H]1O (stereo partly shown) [globotriaose, Galα4Galβ4Glc] |  |  |  |  |  |  |  | Inhibition of toxin with monovalent inhibitor [2]: Minor effects; Inhibition of non-toxigenic diarrhea causing E. coli by monovalent oligosaccharide (diarrheagenic E. coli; concentration of 0.3 mM): effect is seen; Inhibition of binding to globotriaosylceramide (diarrheagenic E. coli; preincubation 1.5 mM, final concentration 0.3 mM): Inhibition of binding |
| CC(=O)N[C@H]1[C@H]([C@H](O)[C@H](O)CO)O[C@@](O[C@H]2[C@@H](O)[C@@H](CO)O[C@@H](O[C@H]3[C@H](O)[C@@H](O)C(O)O[C@@H]3CO)[C@@H]2O)(C(=O)O)C[C@@H]1O (stereo partly shown) [sialyl-lactose] |  |  |  |  |  |  |  | Efficacy in a rhesus monkey animal model of the infection (Helicobacter pylori [3]): effective; Inhibition of Helicobacter pylori binding to human gastrointestinal cell lines (Helicobacter pylori [4]): inhibits |
| Fucα2Galβ3(Fucα4)GlcNAcβ3Galβ4Glcβ1Cer [No. 25] | − | − | − | − | − | − | − | Binding of glycosphingolipids to H.pylori 17875 (H. pylori CCUG 17875 [6]): +; Binding of H. pylori CCUG 17875 to glycosphingolipid, in words (H. pylori CCUG 17875 [7]): only observed for H. pylori CCUG 17875 |
| GalNAcβ3Galα4Galβ4Glcβ1Cer [No. 12] | − | − | − | − | − | − | − | Binding of glycosphingolipids to H.pylori 17875 (H. pylori CCUG 17875 [8]): −; Binding of an EPEC strain to commercial glycolipids (EPEC strain): observed to bind; Binding of E. coli CCUG 38092 to pure glycosphingolipids after sub-culture (E. coli EIEC CCUG 38092): remain |
| Galβ3(Fucα4)GlcNAcβ3Galβ4Glcβ1Cer [No. 24] | − | − | − | − | − | − | − | Binding of glycosphingolipids to H.pylori 17875 (H. pylori CCUG 17875 [8]): − |

— US20060014717A1, “Therapeutic compositions for use in prophylaxis or treatment of diarrheas” (priority 2002, published 2006)
